The source of these data is the NIST ThermoML archive (doi:10.1021/je800658v).

Numbers after ± are expanded uncertainties.

A short description of the data set: activity coefficient (dimensionless); of the first substance listed, at infinite dilution; xn = mol fraction of the nth substance listed. The settings on record: Liquid, inverse gas chromatography, x1 = 0.

For `CC1CCCC1` [methylcyclopentane] + CCCCn1cc[n+](C)c1.F[B-](F)(F)F, the activity coefficient is, setting by setting: (303.35 K) 62.2 ± 3.7; (312.55 K) 53.5 ± 3.2; (322.55 K) 42.8 ± 2.6; (332.55 K) 55.4 ± 3.3.
For `CCCCCCCCC` [nonane] + CCCCn1cc[n+](C)c1.F[B-](F)(F)F, the activity coefficient is, setting by setting: (303.35 K) 956 ± 57; (312.55 K) 793 ± 48; (322.55 K) 612 ± 37; (332.55 K) 464 ± 28.
In the same order, the values of `CC(C)CC(C)(C)C` [2,2,4-trimethylpentane] + CCCCn1cc[n+](C)c1.F[B-](F)(F)F are 321 ± 19, 231 ± 14, 198 ± 12 and 272 ± 16.
Consider `CCC(C)=O` [butanone] + CCCCn1cc[n+](C)c1.F[B-](F)(F)F, for which the activity coefficient is 1.5 ± 0.09 (303.35 K), 1.48 ± 0.09 (312.55 K), 1.44 ± 0.09 (322.55 K) and 1.25 ± 0.08 (332.55 K).
Consider `CCC(C)CC` [3-methylpentane] + CCCCn1cc[n+](C)c1.F[B-](F)(F)F, for which the activity coefficient (303.35 K) came to 126 ± 7.6, the activity coefficient (312.55 K) was found to be 94.3 ± 5.7, the activity coefficient (322.55 K) came out at 82.9 ± 5 and the activity coefficient (332.55 K) was determined as 152 ± 9.2.
For `C#CCCCC` [1-hexyne] + CCCCn1cc[n+](C)c1.F[B-](F)(F)F, in that order: 8.29 ± 0.5, 7.53 ± 0.45, 7.47 ± 0.45 and 6.82 ± 0.41.
